Source: US12233073B2, “Skin care formulations and skin cancer treatment” (Regents of the University of Minnesota, priority 2017, dated 2025)

Key:
PRPK = assay: SSL-induced phosphorylation of PRPK in JB6 cells; type: cell-based; settings: increasing concentrations added to the medium
Method: The effect of the binding of rocuronium bromide to PRPK on SSL-induced phosphorylation of PRPK was evaluated. FIG. 13C is a photograph illustrating a chromatographic plate showing the reduction in SSL-induced phosphorylation of PRPK in JB6 cells with increasing concentrations of rocuronium bromide, added into the medium. Thus, rocuronium bromide inhibited sUVL-induced phosphorylation of PRPK.
The effect of the binding of betamethasone 17-valerate to PRPK on SSL-induced phosphorylation of PRPK was evaluated. FIG. 14C is a photograph illustrating a chromatographic plate showing the reduction in SSL-induced phosphorylation of PRPK in JB6 cells with an increasing concentration of betamethasone 17-valerate, added to the medium. Thus, betamethasone 17-valerate inhibited SSL-induced phosphorylation of PRPK.

PRPK in A431 lysates = target: T1, PRPK in A431 lysates (Homo sapiens, UniProt Q96S44); assay: Ex vivo binding assay, drug-conjugated Sepharose 4B beads with A431 cell lysates; settings: pull-down with drug-conjugated Sepharose 4B beads
T1 construct: endogenous in cells; host or cells: A431
T1 sequence (Q96S44 1-253): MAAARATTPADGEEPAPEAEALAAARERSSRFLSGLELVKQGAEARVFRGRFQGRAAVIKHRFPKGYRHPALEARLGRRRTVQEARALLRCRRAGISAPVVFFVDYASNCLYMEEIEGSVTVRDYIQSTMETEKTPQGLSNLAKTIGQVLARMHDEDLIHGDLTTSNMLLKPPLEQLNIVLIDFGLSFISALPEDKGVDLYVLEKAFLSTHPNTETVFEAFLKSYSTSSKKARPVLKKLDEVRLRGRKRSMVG
Method: (§1) The interaction between rocuronium bromide and PRPK, and the inhibition of PRPK phosphorylation by rocuronium bromide was evaluated. In vitro and ex vivo binding assays were conducted using GST-PRPK or A431 cell lysates and rocuronium bromide-conjugated Sepharose 4B beads. FIG. 13A is a photograph illustrating a chromatographic plate showing the interaction and binding of PRPK with rocuronium bromide in A431 cells. FIG. 13B is a photograph illustrating a chromatographic plate showing the interaction and binding of rocuronium bromide with wildtype PRPK recombinant GST protein.
as §1, with “betamethasone 17-valerate” for “rocuronium bromide”, “using recombinant” for “using”, “betamethasone 17-valerate-conjugated” for “rocuronium bromide-conjugated”, “14A” for “13A”, “14B” for “13B”

[1] = target: T2, wildtype PRPK recombinant GST protein (Homo sapiens, UniProt Q96S44); assay: In vitro binding assay, drug-conjugated Sepharose 4B beads with GST-PRPK; settings: pull-down with drug-conjugated Sepharose 4B beads
T2 sequence (Q96S44 1-253): T1 sequence (Q96S44 1-253)
Method: as §1
as §1, with “betamethasone 17-valerate” for “rocuronium bromide”, “using recombinant” for “using”, “betamethasone 17-valerate-conjugated” for “rocuronium bromide-conjugated”, “14A” for “13A”, “14B” for “13B”

[2] = Absorption of sUV wavelengths by the PRPK inhibitors; type: physicochemical; settings: for absorption of sUV wavelengths: UVB or UVA range (280 to 400 nm)
Method: To assess whether the effectiveness of rocuronium bromide or betamethasone 17-valerate was related to absorption or attenuation of sUV wavelengths, instead of or in addition to inhibition of PRPK phosphorylation, absorption of sUV wavelengths by rocuronium bromide or betamethasone 17-valerate was evaluated. […] The maximum absorption wavelength for rocuronium bromide was 227 nm, and that for betamethasone-17-valerate was 240 nm.

[3] = tested on: SSL-induced skin carcinogenesis in SKH-1 hairless mice; assay: Chronic SSL-induced skin carcinogenesis in SKH-1 hairless mice (early-stage and late-stage prevention models); type: in vivo, mouse; settings: for SSL-induced neovascularization in tumor areas: early- and late-stage models (FIGS. 23, 24A, 24B); for SSL-induced skin carcinogenesis: topical cream 0.1% or 1%; for Ki-67 expression / PRPK phosphorylation: skin staining, FIGS. 23, 24A, 24B
Method: The effectiveness of rocuronium bromide (EXAMPLES 11 and 12) and betamethasone 17-valerate (EXAMPLE 13) in mouse models of chronic sUV-induced skin carcinogenesis was evaluated. Female SKH-1 hairless mice (5 weeks old, Charles River, Burlington, MA) were used. Skin carcinogenesis was induced by SSL-irradiation source lamps. […] For topical treatment to the dorsal mouse skin, cream (oil-in-water emulsions) containing 0.1% or 1% (0.1 or 1 mg in 100 μl) of rocuronium bromide or betamethasone 17-valerate were prepared. The models included early-stage prevention models (EXAMPLE 11) and a late-stage prevention models (EXAMPLES 12 and 13). […] SSL treatment was for 15 weeks and the drug cream was continued for 29 weeks. In the late-stage model, mice received SSL for 15 weeks at which time they began receiving topical application with rocuronium bromide or betamethasone 17-valerate. For the early stage model, SKH-1 hairless mice were divided into groups as follows: Groups 1 and 2 were negative control groups, untreated and treated with only cream vehicle with no SSL exposure; Group 3=1% rocuronium bromide; Group 4=SSL alone without cream; Group 5=SSL with cream only; Group 6=0.1% rocuronium bromidein cream with SSL; Group 7=1% rocuronium bromide in cream with SSL. For the late stage models, groups were as follows: Groups 8 and 9 were negative control groups, untreated and treated with only cream vehicle with no SSL exposure; Group 10=1% rocuronium bromide only; Group 11=1% betamethasone 17-valerate only; Group 12=SSL alone with cream; Group 13=SSL with 0.1% rocuronium bromide; Group 14=1% rocuronium bromide in cream with SSL; Group 15=0.1% betamethasone 17-valerate in cream with SSL; and Group 16=1% […] betamethasone 17-valerate in cream with SSL. An antibiotic ointment was applied to the eyes of each mouse prior to SSL exposure and body weight and tumor volume were measured each week.

SMILES	SSL-induced phosphorylation of PRPK (PRPK)	binding to PRPK in A431 lysates (PRPK in A431 lysates)	binding to GST-PRPK [1]	maximum absorption wavelength [2] [nm]	absorption of sUV wavelengths [2]	levels of COX-2 in SKH-1 hairless mouse skin ([3]; FIGS. 20C, 21C)	levels of MMP-9 in SKH-1 hairless mouse skin ([3]; FIGS. 20C, 21C)	levels of cyclin D1 in SKH-1 hairless mouse skin ([3]; FIGS. 20C, 21C)	levels of phosphorylated PRPK in SKH-1 hairless mouse skin ([3]; FIGS. 20C, 21C)	SSL-induced neovascularization in tumor areas [3]	tumor volume ([3]; early-stage model (FIG. 20A))	tumor number ([3]; early-stage model (FIG. 20B))	SSL-induced skin carcinogenesis ([3]; early-stage model)	tumor number ([3]; late-stage model)	tumor volume ([3]; late-stage model)	SSL-induced skin carcinogenesis ([3]; late-stage model)	Ki-67 expression [3]	PRPK phosphorylation [3]
C=CC[N+]1([C@H]2C[C@H]3[C@@H]4CC[C@H]5C[C@H](O)[C@@H](N6CCOCC6)C[C@]5(C)[C@H]4CC[C@]3(C)[C@H]2OC(C)=O)CCCC1 [rocuronium bromide]	inhibited	binds	binds	227	do not Substantially Absorb or Block	suppressed	suppressed	suppressed	suppressed	inhibited	decreased	decreased	reduced	decreased	decreased	reduced	inhibited	inhibited
CCCCC(=O)O[C@]1(C(=O)CO)[C@@H](C)C[C@H]2[C@@H]3CCC4=CC(=O)C=C[C@]4(C)[C@@]3(F)[C@@H](O)C[C@@]21C [betamethasone 17-valerate]	inhibited	binds	binds	240	do not Substantially Absorb or Block					inhibited				reduces	reduces	reduced	inhibited	inhibited
